The text below walks through data of patent US20240384226A1, “RHODOPSEUDOMONAS PALUSTRIS TIE-1 STRAINS AND METHODS FOR BIOPLASTIC PRODUCTION” (Washington University, priority 2023, published 2024).

Converted amounts (≈) assume the structure as drawn.

The term MIC denotes the lowest concentration that inhibits growth of the organism. Higher therefore signals a less susceptible organism.

The assay relates to TIE-1. As to the kind of experiment: minimum inhibitory concentration (MIC) of antibiotics for TIE-1. In kind it is cell-based, Rhodopseudomonas palustris TIE-1. The settings on record: resistance of TIE-1 to selection antibiotics; for MIC: Rhodopseudomonas palustris.

As for `O=C(N[C@H](CO)[C@H](O)c1ccc([N+](=O)[O-])cc1)C(Cl)Cl` [chloramphenicol], the MIC was 100 µg/mL (≈ 309 µM).

As for gentamicin, the “minimum inhibitory concentration (MIC)” value came out at 200 µg/mL.

For `NC[C@H]1O[C@H](O[C@H]2[C@H](O)[C@@H](O[C@H]3O[C@H](CO)[C@@H](O)[C@H](N)[C@H]3O)[C@H](N)C[C@@H]2N)[C@H](O)[C@@H](O)[C@@H]1O` [kanamycin], the minimum inhibitory concentration (MIC) is 50 µg/mL (≈ 103 µM).
